Columns and labels:
Assay type in all cases: cell-based
CFTR ΔF508 mutant [1] = target: T1, CFTR ΔF508 mutant (Homo sapiens, UniProt P13569, DEL508-508); experiment: YFP-halide influx assay for the CFTR-ΔF508 mutation (384 well, FDSS/μCell); conditions: CFBE41o- cells, CFTR-ΔF508, 1×D-PBS, fluorescence after 36 seconds
T1 construct: expressed in transfected cells; host or cells: CFBE41o- (adenoviral transduction)
Method in brief: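 Potentiator read-out as 1−F/F0, F taken 36 s after iodide addition, EC50 fitted against compound concentration. Cells: CFBE41o- expressing ΔF508 CFTR plus halide-sensitive YFP via adenovirus, rescued by 27 °C for 24 h or 24 h modulator at 37 °C.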

CFTR ΔF508 mutant [2] = target: T1, CFTR ΔF508 mutant; experiment: YFP-halide influx assay for the CFTR-ΔF508 mutation, gluconate buffer; conditions: CFBE41o- cells, forskolin 10.67 μM
Method in brief: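 CFBE41o- cells adenovirally transduced with CFTR ΔF508 and YFP H148Q/I152L, then held 24 h at 27 °C or treated with CFTR modulator 24 h at 37 °C. I− quenching recorded for 7 s after injection; activity as 1-F/F0, EC50 from concentration plot.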

CFTR G551D mutant = target: T2, CFTR G551D mutant (Homo sapiens, UniProt P13569, G551D); experiment: YFP-halide influx assay for the CFTR-G551D mutation; conditions: HEK293 cells, forskolin 10.67 μM
T2 construct: expressed in transfected cells; host or cells: HEK293 (reverse transfection with plasmid)
Method in brief: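 HEK293 cells reverse-transfected with CFTR G551D and YFP H148Q/I152L/F47L halide sensor, expressed 24 h at 37 °C. Iodide-induced fluorescence quench recorded 7 s after I− injection; response = 1−F/F0, with EC50 from plot against compound concentration.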

CFTR ΔF508 mutant [3] = target: T1, CFTR ΔF508 mutant; experiment: YFP-halide influx assay for the CFTR-ΔF508 mutation, PBS buffer (96 well); conditions: CFBE41o- cells, forskolin 10.67 μM
From the text: The YFP halide influx assay measures the functionality of the cystic fibrosis Transmembrane Conductance regulator (CFTR) channels in the cystic fibrosis bronchial epithelium cell line CFBE41o-. The assay is used to evaluate the capacity of compounds to increase the open probability of existing CFTR channels in the membrane. It makes use of the observation that the yellow fluorescent protein (YFP) variant YFP H148Q, I152L has its fluorescence substantially quenched by halide ions like Cl^− and I^−. (Galietta, Haggie, & Verkman, 2001) (Nagai, et al., 2002)
For this purpose, CFBE41o-cells are seeded in 96 well plates (6000 CFBE cells/well). One day after seeding, the CFBE cells are transduced with adenoviral vectors that direct the expression of the CFTR ΔF508 mutant and of the YFP reporter. Cells are incubated at 27° C., 5% CO2 for 24 hours so as to allow for the proper folding and migration to the membrane of the CFTR channel or treated with a CFTR modulator during 24 hours at 37° C.
The I^− induced quenching of fluorescence is recorded immediately after injection of I^− for 7 seconds. The capacity of a compound to increase the channel opening is directly correlated with the decrease in fluorescence, and is expressed as (1-(fluorescence after 7 seconds (F)/fluorescence before injection (F0))) and an EC50 can be derived from a (1-F/F0) vs compound concentration plot.

T2 sequence (P13569 whole entry G551D): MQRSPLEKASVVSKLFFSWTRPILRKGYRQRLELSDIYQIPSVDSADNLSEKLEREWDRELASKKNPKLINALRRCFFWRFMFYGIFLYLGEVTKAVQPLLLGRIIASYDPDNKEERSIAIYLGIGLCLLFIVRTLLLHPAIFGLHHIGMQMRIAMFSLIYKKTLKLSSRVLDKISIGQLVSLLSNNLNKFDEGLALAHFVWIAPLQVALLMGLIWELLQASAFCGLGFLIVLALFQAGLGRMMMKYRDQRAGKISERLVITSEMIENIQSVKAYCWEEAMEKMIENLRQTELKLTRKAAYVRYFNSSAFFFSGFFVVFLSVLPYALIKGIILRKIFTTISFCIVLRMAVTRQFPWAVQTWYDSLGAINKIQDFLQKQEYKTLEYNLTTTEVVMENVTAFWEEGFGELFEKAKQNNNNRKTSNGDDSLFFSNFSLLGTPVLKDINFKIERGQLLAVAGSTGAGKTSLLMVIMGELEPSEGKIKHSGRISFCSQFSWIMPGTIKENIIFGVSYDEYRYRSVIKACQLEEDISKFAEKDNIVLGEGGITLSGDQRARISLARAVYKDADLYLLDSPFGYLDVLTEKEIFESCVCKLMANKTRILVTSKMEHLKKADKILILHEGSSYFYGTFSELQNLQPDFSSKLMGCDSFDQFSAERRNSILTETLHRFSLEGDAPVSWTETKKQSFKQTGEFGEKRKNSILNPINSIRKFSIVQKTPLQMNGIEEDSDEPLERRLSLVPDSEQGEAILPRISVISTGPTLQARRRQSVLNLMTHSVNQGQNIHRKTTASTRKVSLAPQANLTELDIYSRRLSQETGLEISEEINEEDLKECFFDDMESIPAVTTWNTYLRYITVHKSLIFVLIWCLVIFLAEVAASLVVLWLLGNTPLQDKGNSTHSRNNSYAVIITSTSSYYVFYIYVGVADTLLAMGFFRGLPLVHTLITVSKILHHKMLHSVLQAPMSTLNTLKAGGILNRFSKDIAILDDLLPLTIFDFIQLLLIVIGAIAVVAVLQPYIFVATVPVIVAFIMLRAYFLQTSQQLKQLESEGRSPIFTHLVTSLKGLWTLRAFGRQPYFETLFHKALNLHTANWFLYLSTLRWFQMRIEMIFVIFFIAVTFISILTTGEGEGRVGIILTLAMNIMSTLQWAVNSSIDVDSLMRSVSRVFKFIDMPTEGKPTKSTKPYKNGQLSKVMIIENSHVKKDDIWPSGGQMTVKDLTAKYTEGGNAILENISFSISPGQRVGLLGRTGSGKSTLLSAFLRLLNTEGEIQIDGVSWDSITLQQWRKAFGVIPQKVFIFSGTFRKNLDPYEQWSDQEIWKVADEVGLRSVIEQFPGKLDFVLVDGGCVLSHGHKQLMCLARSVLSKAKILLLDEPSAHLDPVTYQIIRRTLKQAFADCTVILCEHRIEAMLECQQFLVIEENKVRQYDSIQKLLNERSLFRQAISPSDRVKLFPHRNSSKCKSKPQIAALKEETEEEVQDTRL
T1 sequence (P13569 with tags, fused parts or gaps DEL508-508): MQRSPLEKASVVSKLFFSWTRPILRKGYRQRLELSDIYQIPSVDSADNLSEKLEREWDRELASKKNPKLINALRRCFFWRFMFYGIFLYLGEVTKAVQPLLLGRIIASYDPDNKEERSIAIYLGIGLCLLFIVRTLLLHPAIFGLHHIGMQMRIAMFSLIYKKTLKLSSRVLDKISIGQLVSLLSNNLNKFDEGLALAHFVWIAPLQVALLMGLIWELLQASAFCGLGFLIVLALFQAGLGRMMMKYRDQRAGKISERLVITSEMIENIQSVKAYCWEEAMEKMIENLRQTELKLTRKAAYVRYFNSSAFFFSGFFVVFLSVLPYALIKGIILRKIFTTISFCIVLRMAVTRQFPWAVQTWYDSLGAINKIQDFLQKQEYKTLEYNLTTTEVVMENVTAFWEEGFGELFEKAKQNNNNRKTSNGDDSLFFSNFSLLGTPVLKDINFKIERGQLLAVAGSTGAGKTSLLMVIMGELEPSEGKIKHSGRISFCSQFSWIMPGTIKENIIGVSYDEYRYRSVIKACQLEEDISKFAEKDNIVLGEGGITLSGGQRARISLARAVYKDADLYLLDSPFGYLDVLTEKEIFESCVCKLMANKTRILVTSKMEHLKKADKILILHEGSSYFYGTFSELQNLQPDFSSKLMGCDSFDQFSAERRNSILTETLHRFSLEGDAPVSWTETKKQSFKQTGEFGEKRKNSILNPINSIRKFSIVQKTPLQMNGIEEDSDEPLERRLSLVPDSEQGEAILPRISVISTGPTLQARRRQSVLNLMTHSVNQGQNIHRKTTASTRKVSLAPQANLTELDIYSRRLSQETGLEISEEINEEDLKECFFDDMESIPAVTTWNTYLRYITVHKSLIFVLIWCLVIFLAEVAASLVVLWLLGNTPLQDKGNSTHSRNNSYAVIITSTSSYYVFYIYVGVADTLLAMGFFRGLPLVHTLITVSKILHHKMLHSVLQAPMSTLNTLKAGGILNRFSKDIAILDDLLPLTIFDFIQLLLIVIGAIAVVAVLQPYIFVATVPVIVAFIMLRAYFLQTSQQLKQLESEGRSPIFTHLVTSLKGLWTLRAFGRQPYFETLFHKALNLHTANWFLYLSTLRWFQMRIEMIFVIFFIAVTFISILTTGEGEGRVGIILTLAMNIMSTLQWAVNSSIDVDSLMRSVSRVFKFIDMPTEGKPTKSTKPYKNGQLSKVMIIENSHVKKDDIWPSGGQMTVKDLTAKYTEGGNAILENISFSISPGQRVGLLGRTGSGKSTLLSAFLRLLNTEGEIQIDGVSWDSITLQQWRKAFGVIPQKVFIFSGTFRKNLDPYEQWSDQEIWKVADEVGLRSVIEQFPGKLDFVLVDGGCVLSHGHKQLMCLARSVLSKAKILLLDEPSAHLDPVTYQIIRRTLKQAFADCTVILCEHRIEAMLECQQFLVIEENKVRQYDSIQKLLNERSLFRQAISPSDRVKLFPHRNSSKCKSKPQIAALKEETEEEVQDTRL

| SMILES | EC50 (CFTR ΔF508 mutant [1]) [nM] | EC50 (CFTR ΔF508 mutant [2]) [nM] | EC50 (CFTR G551D mutant) [nM] | EC50 (CFTR ΔF508 mutant [3]) [nM] |
| --- | --- | --- | --- | --- |
| NC(=O)c1cc(S(=O)(=O)N2CCC(F)(F)CC2)sc1NC(=O)c1cc[nH]n1 [Compound 140, N-(3-carbamoyl-5-(4,4-difluoropiperidin-1-ylsulfonyl)thiophen-2-yl)-1H-pyrazole-3-carboxamide] | 10.3 | 29.3 | 67.4 |  |
| CCc1cc(C(=O)Nc2sc(S(=O)(=O)N3CCC(F)(F)CC3)cc2C(N)=O)n[nH]1 [Compound 141, N-(3-carbamoyl-5-(4,4-difluoropiperidin-1-ylsulfonyl)thiophen-2-yl)-5-ethyl-1H-pyrazole-3-carboxamide] | 98.2 | 29.7 | 258 |  |
| CC(C)(C)c1cc(C(=O)Nc2sc(S(=O)(=O)N3CCC(F)(F)CC3)cc2C(N)=O)n[nH]1 [Compound 142, 5-tert-butyl-N-(3-carbamoyl-5-(4,4-difluoropiperidin-1-ylsulfonyl)thiophen-2-yl)-1H-pyrazole-3-carboxamide] | 294 | 70.7 | 536 |  |
| NC(=O)c1cc(S(=O)(=O)N2CCOCC2)sc1NC(=O)c1ccccc1O [Compound 143, 2-(2-Hydroxy-benzoylamino)-5-(morpholine-4-sulfonyl)-thiophene-3-carboxylic acid amide] | 27.2 | 29.2 | 232 |  |
| CN(Cc1ccc(F)cc1)S(=O)(=O)c1cc(C(N)=O)c(NC(=O)c2cc[nH]n2)s1 [Compound 145, 1H-Pyrazole-3-carboxylic acid {3-carbamoyl-5-[(4-fluoro-benzyl)-methyl-sulfamoyl]-thiophen-2-yl}-amide] | 71 | 19.5 | 215 |  |
| COCCN(CC(F)(F)F)S(=O)(=O)c1cc(C(N)=O)c(NC(=O)c2ccccc2F)s1 [Compound 157, 2-(2-fluorobenzamido)-5-(N-(2-methoxyethyl)-N-(2,2,2-trifluoroethy)sulfamoyl) thiophene-3-carboxamide] | 60.9 | 86.5 | 241 |  |
| CN(Cc1ccc(F)cc1F)S(=O)(=O)c1cc(C(N)=O)c(NC(=O)c2cc[nH]n2)s1 [Compound 172, N-(3-carbamoyl-5-(N-(2,4-difluorobenzyl)-N-methylsulfamoyl)thiophen-2-yl)-1H-pyrazole-3-carboxamide] | 42 | 15.4 | 136 |  |
| COc1ccc(OC)c(S(=O)(=O)c2cc(C(N)=O)c(NC(=O)c3ccccc3F)s2)c1 [Compound 182, 5-(2,5-dimethoxyphenylsulfonyl)-2-(2-fluorobenzamido)thiophene-3-carboxamide] | 433 | 97.9 |  |  |
| NC(=O)c1cc(S(=O)(=O)N2CCC(F)(F)CC2)sc1NC(=O)c1cc(C(F)(F)F)[nH]n1 [Compound 189, N-(3-carbmoyl-5-(4,4-difluoropiperidin-1-ylsulfonyl)thiophen-2-yl)-5-(trifluoromethyl)-1H-pyrazole-3-carboxamide] |  | 122 | 226 |  |
| NC(=O)c1cc(S(=O)(=O)N2CCC(F)(F)CC2)sc1NC(=O)c1ccccc1O [Compound 190, 5-(4,4-difluoropiperidin-1-ylsulfonyl)-2-(2-hydroxybenzamido)thiophene-3-carboxamide] | 83.3 | 73.9 | 278 |  |
| NC(=O)c1cc(S(=O)(=O)N(Cc2ccc(F)cc2)C2CC2)sc1NC(=O)c1cc[nH]n1 [Compound 191, N-(3-carbamoyl-5-(N-cyclopropyl-N-(4-fluorobenzyl)sulfamoyl)thiophen-2-yl)-1H-pyrazole-3-carboxamide] | 197 | 90 | 245 |  |
| CN(CC1CC1)S(=O)(=O)c1cc(C(N)=O)c(NC(=O)c2cc[nH]n2)s1 [Compound 193, N-(3-carbamoyl-5-(N-(cyclopropylmethyl)-N-methylsulfamoyl)thiophen-2-yl)-1H-pyrazole-3-carboxamide] | 49.5 | 114 | 206 |  |
| CC(C)S(=O)(=O)c1cc(C(N)=O)c(NC(=O)c2ccccc2O)s1 [Compound 197, 2-(2-hydroxybenzaido)-5-(isopropylsulfonyl) thiophene-3-carboxamide] | 24.8 | 91 | 158 |  |
| NC(=O)c1cc(S(=O)(=O)N2CCOCC2)sc1NC(=O)c1ccc(F)cc1O [Compound 198, 2-(4-fluoro-2-hydroxybenzamido)-5-(morpholinosulfonyl)thiophene-3-carboxamide] | 20.2 | 97.2 | 136 |  |
| CC(C)N(C)S(=O)(=O)c1cc(C(N)=O)c(NC(=O)c2cc[nH]n2)s1 [Compound 210, N-(3-carbamoyl-5-(N-isopropyl-N-methylsulfamoyl)thiophen-2-yl)-1H-pyrazole-3-carboxamide] | 13.4 | 73.5 | 470 |  |
| COCCC(=O)Nc1sc(S(=O)(=O)c2ccc(F)cc2)cc1C(N)=O [Compound 229, 5-(4-fluorophenylsulfonyl)-2-(3-methoxypropanamido) thiophene-3-carboxamide] |  |  |  | 3100 |
| NC(=O)c1cc(S(=O)(=O)c2ccc(F)cc2)sc1NC(=O)c1cccnc1F [Compound 230, N-(3-carbamoyl-5-(4-fluorophenylsulfonyl)thiophen-2-yl)-2-fluoronicotinamide] |  |  |  | 988 |
| CC1COCC(C)N1S(=O)(=O)c1cc(C(N)=O)c(NC(=O)C2(O)CC2)s1 (centres unmarked) [Compound 234, 5-(3,5-dimethylmorpholinosulfonyl)-2-(1-hydroxycyclopropanecarboxamido) thiophene-3-carboxamide] |  |  |  | 283 |
| CC1CN(S(=O)(=O)c2cc(C(N)=O)c(NC(=O)C3(O)CC3)s2)CC(C)O1 (centres unmarked) [Compound 238, 5-(2,6-dimethylmorpholinosulfonyl)-2-(1-hydroxycyclopropanecarboxamido) thiophene-3-carboxamide] |  |  |  | 224 |
| COC1CCN(S(=O)(=O)c2cc(C(N)=O)c(NC(=O)C3(O)CC3)s2)CC1 [Compound 239, 2-(1-hydroxycyclopropanecarboxamido)-5-(4-methoxypiperidin-1-ylsulfonyl)thiophene-3-carboxamide] |  |  |  | 292 |
| CC1CN(S(=O)(=O)c2cc(C(N)=O)c(NC(=O)C3(O)CC3)s2)CCO1 (centres unmarked) [Compound 240, 2-(1-hydroxycyclopropanecarboxamido)-5-(2-methylmorpholinosulfonyl) thiophene-3-carboxamide] |  |  |  | 611 |
| CC1(C)COCCN1S(=O)(=O)c1cc(C(N)=O)c(NC(=O)C2(O)CC2)s1 [Compound 241, 5-(3,3-dimethylmorpholinosulfonyl)-2-(1-hydroxycyclopropanecarboxamido) thiophene-3-carboxamide] |  |  |  | 247 |
| COC1CN(S(=O)(=O)c2cc(C(N)=O)c(NC(=O)C3(O)CC3)s2)C1 [Compound 243, 2-(1-hydroxycyclopropanecarboxamido)-5-(3-methoxyazetidin-1-ylsulfonyl)thiophene-3-carboxamide] |  |  |  | 1620 |
| COCCN(C1CC1)S(=O)(=O)c1cc(C(N)=O)c(NC(=O)C2(O)CC2)s1 [Compound 244, 5-(N-cyclopropyl-N-(2-methoxyethyl)sulfamoyl)-2-(1-hydroxycyclopropanecarboxamido) thiophene-3-carboxamide] |  |  |  | 153 |
| NC(=O)c1cc(S(=O)(=O)c2ccc(F)cc2)sc1NC(=O)c1cccnn1 [Compound 249, N-(3-carbamoyl-5-(4-fluorophenylsulfonyl)thiophen-2-yl)pyridazine-3-carboxamide] |  |  |  | 2900 |

From US9382254B2, “Compounds and pharmaceutical compositions thereof for the treatment of cystic fibrosis” (Galapagos NV, priority 2013, dated 2016)
